US9963445B2, “Chemical compounds” (SYNGENTA PARTICIPATIONS AG, priority 2013, dated 2018)

Key:
Type in all cases: in vivo
[1] = tested on: Abutilon theophrasti; assay: Pre-emergence herbicidal activity, glasshouse pot test; conditions: pre-emergence spray, rate 1000 g/ha, evaluated after 13 days, scale 0-5
Outline: (§1)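 Pots of seeded soil were sprayed one day after sowing (pre-emergence) with compound formulated in acetone/water 50:50 with 0.5% Tween 20. Plants were grown in a glasshouse at 24/16 °C day/night, 14 h light, 65% humidity. Damage was scored after 13 days on a 0–5 scale (5 = total damage).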

[2] = tested on: Alopecurus myosuroides; assay: as above; conditions: pre-emergence spray, rate 1000 g/ha, evaluated after 13 days, scale 0-5
Outline: as §1

[3] = tested on: Amaranthus retroflexus; assay: as above; conditions: pre-emergence spray, rate 1000 g/ha, evaluated after 13 days, scale 0-5
Outline: as §1

[4] = tested on: Echinochloa crus-galli; assay: as above; conditions: pre-emergence spray, rate 1000 g/ha, evaluated after 13 days, scale 0-5
Outline: as §1

[5] = tested on: Setaria faberi; assay: as above; conditions: pre-emergence spray, rate 1000 g/ha, evaluated after 13 days, scale 0-5
Outline: as §1

[6] = tested on: zea mays; assay: as above; conditions: pre-emergence spray, rate 1000 g/ha, evaluated after 13 days, scale 0-5
Outline: as §1

[7] = tested on: Abutilon theophrasti; assay: Post-emergence herbicidal activity, glasshouse pot test; set-up: key: 0 = no damage to plant, 5 = total damage to plant; conditions: Application post-emergence, rate 1000 g/ha, evaluated after 13 days
Outline: (§2)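 Test solution: technical active ingredient in acetone/water (50:50) containing 0.5% Tween 20, applied as an aqueous spray to 8-day-old plants. Evaluation at 13 days, 0–5 damage scale.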

[8] = tested on: Alopecurus myosuroides; assay: as above; set-up: key: 0 = no damage to plant, 5 = total damage to plant; conditions: Application post-emergence, rate 1000 g/ha, evaluated after 13 days
Outline: as §2

[9] = tested on: Amaranthus retroflexus; assay: as above; set-up: key: 0 = no damage to plant, 5 = total damage to plant; conditions: Application post-emergence, rate 1000 g/ha, evaluated after 13 days
Outline: as §2

[10] = tested on: Echinochloa crus-galli; assay: as above; set-up: key: 0 = no damage to plant, 5 = total damage to plant; conditions: Application post-emergence, rate 1000 g/ha, evaluated after 13 days
Outline: as §2

[11] = tested on: Setaria faberi; assay: as above; set-up: key: 0 = no damage to plant, 5 = total damage to plant; conditions: Application post-emergence, rate 1000 g/ha, evaluated after 13 days
Outline: as §2

[12] = tested on: zea mays; assay: as above; set-up: key: 0 = no damage to plant, 5 = total damage to plant; conditions: Application post-emergence, rate 1000 g/ha, evaluated after 13 days
Outline: as §2

Structure (SMILES) | ABUTH damage score, application pre-emergence [1] | ALOMY damage score, application pre-emergence [2] | AMARE damage score, application pre-emergence [3] | ECHCG damage score, application pre-emergence [4] | SETFA damage score, application pre-emergence [5] | ZEAMX damage score, application pre-emergence [6] | ABUTH herbicidal damage score [7] | ALOMY herbicidal damage score [8] | AMARE herbicidal damage score [9] | ECHCG herbicidal damage score [10] | SETFA herbicidal damage score [11] | ZEAMX herbicidal damage score [12]
CCCC1=C(Cl)C(=O)N(c2cc(C(C)(C)C#N)ncn2)C1O (stereo not drawn) [CF22] | 5 | 2 | 5 | 5 | 4 | 2 | 5 | 5 | 5 | 5 | 5 | 3
COC1=C(C)C(O)N(c2cc(C(F)(F)F)ccn2)C1=O (stereo not drawn) [AI1, 2-hydroxy-4-methoxy-3-methyl-1-[4-(trifluoromethyl)-2-pyridyl]-2H-pyrrol-5-one] | 5 | 4 | 5 | 4 | 5 | 3 | 5 | 4 | 5 | 5 | 5 | 4
CC#Cc1nnc(N2C(=O)C(OC)=C(C)C2O)cc1C(C)(F)F (stereo not drawn) [BI18] | 4 | 3 | 4 | 3 | 3 | 1 | 5 | 3 | 5 | 5 | 4 | 2
CC1=C(Cl)C(=O)N(c2ccc(S(C)(=O)=O)cn2)C1O (stereo not drawn) [AF54] | 0 | 0 | 0 | 1 | 0 | 2 | 2 | 2 | 0 | 3 | 1 | 0
CC1=C(Cl)C(=O)N(c2cc(C(F)(F)F)c(-c3nn(C)c4ccccc34)cn2)C1O (stereo not drawn) [AF105] | 0 | 0 | 0 | 0 | 0 | 0 | 5 | 3 | 5 | 2 | 4 | 0
